Assay [1] deals with β-amyloid oligomers, profibrils, fibrils and plaque aggregates. Put plainly: SDS-PAGE analysis of dissociation of β-amyloid aggregates. In kind it is biochemical.
In assay [2] the test system is β-amyloid oligomers, profibrils, fibrils and plaques. Put plainly: Electron microscopic observation of β-amyloid aggregates. In kind it is biochemical. The note with it: electron microscopy.
Assay [3] has as its target T1, β-amyloid (Homo sapiens, UniProt P05067). As to the kind of experiment: Plasma β-amyloid concentration before and after administration of EPPS, B−A by Equation 1. Format: in vivo, APP/PS1 transgenic mice. Further details: tissue Jackson Laboratory (mice); host or cells: plasma / whole blood of female APP/PS1 transgenic mice; B-A (1 day) / B-A (5 days) / B-A (19 days) / B-A (33 days): unit not given here. The conditions noted are these: for B-A (1 day): average of three measurements. On the procedure: Female APP/PS1 transgenic mice were used as test animals. A total of 32 mice were used (eleven 5-6 month-olds and twenty-one 7.2-8.6 and 13 month-olds). 5-6-month-old mice were used since β-amyloid plaque accumulation in the brain begins from 5 months.
The transgenic APP/PS1 mouse model was B6C3-Tg(APPswe, PSEN1dE9)85Dbo/Mmjax purchased from the Jackson Laboratory (USA) and maintained and used for experiments under the guideline of the Animal Care and Use Committee.
EPPS was administered to each of the 32 mice at a dose of 1,000 mg/kg/day.
Blood was drawn from the of the retro-orbital venous plexus of the mouse using a microtube (Marienfeld, Germany) treated with 80 IU/mL heparin before and after the administration of EPPS. The blood drawing after the administration of EPPS was performed 1 day, 5 days, 19 days and 33 days after the administration of EPPS.
The blood was collected in an Eppendorf tube and centrifuged at 13,500 rpm and 4° C. for 5 minutes. Plasma separated from the cell fraction was collected in an Eppendorf tube for immediate use or for storage at −80° C. for later use.
β-Amyloid concentration in the plasma collected before and after the administration of EPPS was measured by detection units 1 and 2 of a kit. B−A was calculated by a calculation unit from the measured concentrations using [Equation 1].

In assay [4] the target is T1, β-amyloid. Put plainly: β-amyloid concentration in plasma and whole blood treated with EPPS (APP/PS1 transgenic mouse). The note with it: 9-month-old APP/PS1 mice. The arrangement: tissue Jackson Laboratory (mice); host or cells: plasma / whole blood of female APP/PS1 transgenic mice. On the procedure: 9-month-old female APP/PS1 transgenic mice were used as test animals.
The transgenic APP/PS1 mouse model was B6C3-Tg(APPswe,PSEN1dE9)85Dbo/Mmjax purchased from the Jackson Laboratory (USA) and bred and used for experiments under the guideline of the Animal Care and Use Committee.
Sample treatment and β-amyloid concentration measurement were conducted in the same manner as in Example 1.

For assay [5], the target named is T1, β-amyloid. As to the kind of experiment: β-amyloid monomer concentration in plasma and whole blood treated with EPPS (APP/PS1/Tau transgenic mouse). The arrangement: tissue Jackson Laboratory (mice); host or cells: plasma / whole blood of 5-month-old female APP/PS1/Tau transgenic mice, treated ex vivo with EPPS. The conditions noted are these: 5-month-old APP/PS1/Tau mice. The source says: 5-month-old female APP/PS1/Tau transgenic mice were used as test animals.
The transgenic APP/PS1/Tau mouse model was B6;129-Psen1tm1MpmTg(APPSwe,tauP301L)1Lfa/Mmjax purchased from the Jackson Laboratory (USA) and maintained and used for experiments under the guideline of the Animal Care and Use Committee.
Blood was collected in K2 EDTA-treated vacuum tube containing Roche Complete Mini (protease inhibitor) solution and centrifuged. Plasma separated from the cell fraction was collected in an Eppendorf tube and prepared into 0.1-mL samples, which were used immediately or stored at −80° C. for later use. Whole blood was collected in an Eppendorf tube by treating with EPPS and separating plasma from the cell fraction and prepared into 0.1-mL samples, which were used immediately for β-amyloid concentration measurement or stored at −80° C. for later use.
The plasma was treated with water (control group) or EPPS (EPPS group).
As for the EPPS group, 15 μL of the plasma was treated with 5 μL of 400 mM EPPS, so that the final EPPS concentration was 100 mM. As for the control group, 15 μL of plasma was treated with 5 μL of PBS, so that the concentration was the same as that of the EPPS group. […]
The whole blood was analyzed after treating with EPPS. […]
The β-amyloid concentration in each plasma was measured using detection units 1 and 2 and MB/MP was calculated by a calculation unit using [Equation 2].

Where [6] appears, read: Aged (7.2 months or older) female APP/PS1 mice, one value per mouse, EPPS 1,000 mg/kg/day, plasma β-amyloid after minus before.
Setting [7] is: EPPS-treated whole blood / EPPS-treated plasma (Equation 2).
[8] abbreviates: control plasma / EPPS-treated plasma (Equation 3).

Where “and” joins values, the source holds several entries; their conditions need not be identical. Identical values can stand only once. Entries after “also recorded” stand apart in the source; their conditions may differ.

The values that follow come from patent US10006920B2, “Diagnostic kit for diagnosis of abnormal protein aggregation- or misfolding-related diseases using dissociation of protein aggregates” (KOREA INSTITUTE OF SCIENCE AND TECHNOLOGY, priority 2013, dated 2018).

T1 sequence (P05067 672-713 limits assumed): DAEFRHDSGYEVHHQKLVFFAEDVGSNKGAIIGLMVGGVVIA

In the case of `O=S(=O)(O)CCCN1CCN(CCO)CC1` [EPPS, 4-(2-Hydroxyethyl)-1-piperazinepropanesulfonic acid], the “Dissociation of β-amyloid aggregates (bands of Aβ 40 and Aβ 42 monomers, 4.3-4.5 kD)” value in assay [1] was “has the activity of dissociating β-amyloid oligomers, profibrils, fibrils and plaque aggregates; also recorded: has the activity of dissociating β-amyloid dimer, oligomer, profibril, fibril and plaque aggregates”. For the same compound, the “Dissociation of β-amyloid aggregates by electron microscopic observation” value in assay [2] is “no β-amyloid aggregates are observed; also recorded: confirms the activity of dissociating β-amyloid dimers, oligomers, profibrils, fibrils and plaques”. The “β-amyloid 42 concentration in plasma after administration (FIG. 3a)” value on β-amyloid [3] (5-6-month-old (young) and 7.2-month-old (aged) mice, before vs 24 hours after) was “significant increase”. Further, at β-amyloid [3] (7.2-month-old (aged) mice, 1, 5, 19 and 33 days after administration), the “β-amyloid 42 concentration in plasma, course over time (FIG. 3b)” value was “significant increase in β-amyloid 42 concentration followed by decrease”. Besides, the “B−A value (sign)” value at β-amyloid [3] (24 hours (1 day) after administration of EPPS, all the mice) was “positive (+)”. Also, the “B-A (5 days)” value on β-amyloid [3] (setting [6]) is 93.531 and 163.986 and 51.584 and 76.049 and 170.979 and 86.122 and 108.916 and 311.820 and 134.965 and 170.656 and 207.692 and 55.115 and 209.711 and 88.441 and 105.420 and 130.096 and 118.007 and 70.105 and 185.315 and 66.259 and 214.549. At β-amyloid [3] (setting [6]), the “B-A (19 days)” value is 298.504 and 52.809 and 70.596 and 86.108 and 129.025 and 57.487 and 53.294 and 43.826 and 101.221 and 82.444 and 136.814 and 131.569 and 88.695 and 61.725 and 27.070 and 32.708 and 22.406 and 20.515 and 59.409. The “B-A (33 days)” value on β-amyloid [3] (setting [6]) is 114.33 and 23.509 and 148.154 and 21.599 and 71.410 and 4.797 and 24.240 and 11.079 and 42.621 and 31.969 and 60.179 and 39.237 and 23.448 and 33.902 and 41.596 and 59.545 and 31.762 and 51.292 and 78.101. For the same compound, the “B-A (1 day)” value at β-amyloid [3] (setting [6]) was 78.802 and 41.434 and 20.276 and 12.442 and 15.385 and 7.373 (2×) and 182.867 and 10.138 and 13.364 and 11.060 and 4.147 and 140.559 and 16.129 and 194.580 and 18.894 and 6.119 and 345.979 and 19.816 and 156.294 and 180.594; at β-amyloid [3] (Young (5-6 months) female APP/PS1 mice, one value per mouse, EPPS 1,000 mg/kg/day, plasma β-amyloid after minus before), 52.151 and 22.674 and 98.547 and 20.430 and 191.398 and 124.731 and 108.065 and 102.326 and 89.535 and 94.186 and 146.802. For the same compound, the “B−A value, course over time” value at β-amyloid [3] (since 19 days after the administration of EPPS) was “began to decrease”. Besides, the MB/MP worked out at 0.79 at β-amyloid [4] (setting [7]) and 0.61 at β-amyloid [5] (setting [7]). For the same compound, the UP/MP on β-amyloid [4] (setting [8]) amounted to 0.99; at β-amyloid [5] (setting [8]), 0.92. Besides, the “MP Aβ concentration (monomer concentration in plasma of the EPPS group)” value on β-amyloid [4] (plasma treated with EPPS, average of three measurements) is on record as 151.58 ± 24.03.
